This note sets out measurements from patent publication US9889180B2, “Method of treating cancer” (Agency for Science, Technology and Research, priority 2012, dated 2018).

What all share (format): cell-based, human
Series [1] has as its system IFN responsive genes (IFI16, IRF1, OAS1). Description: Quantitative PCR of IFN responsive genes in DU145 prostatospheres. The note with it: DZNep with IFN-γ. As to the method:
Total RNA was isolated by using Trizol (Invitrogen) and purified with the RNeasy Mini Kit (Qiagen). The microarray hybridization was performed using the Illumina Gene Expression Sentrix BeadChip HumanRef-8_V3, and data analysis was performed by GeneSpring software from Agilent Technologies as described previously. The analyzed gene sets by GeneSpring were next subjected to Ingenuity Pathway Analysis (IPA) for gene ontology (GO) analysis. Reverse transcription and quantitative PCR assays were performed using High Capacity cDNA Archive kit and KAPA SyBr Fast qPCR kit (KAPA biosystems). For quantification of mRNA levels, 18S level was used as an internal control. All reactions were analyzed in an Applied Biosystems PRISM 7500 Fast Real-Time PCR system in 96-well plate format. Prostatospheres were generated according to protocols known to the skilled person in the art. […] 7 days old prostatospheres formed were stained with 4 μg/ml p-Iodonitrotetrazolium Violet (INT) overnight and were counted and analyzed using a GelCount™ automatic plate scanner (Oxford Optronics) and GelCount Version 0.025.1 software (Oxford Optronics). […]

The test system of series [2] is IFNGR1 expression and STAT1 activation. Description: Western blot of IFNGR1 and IFN signaling in T47D cells. As to the method: Western Blotting was performed as described previously. Briefly, Cells were scraped, collected, and lysed in RIPA buffer. To release histones from chromatin, cell lysates were further sonicated for 15 sec using a XL2000 Microson Ultrasonic Processor (Misonix). Equal amounts of protein (30 μg) were separated on SDS-polyacrylamide gels and transferred to PVDF membranes. The blots were probed with antibodies against EED (07-368), SUZ12 (07-379), trimethylated H3-K27 (07-449), Acetyl-Histone H3 (06-599), which were purchased from Upstate Biotechnology. IFNGR1 (GIR-94) and anti-IFI16 (1G7) were purchased from Santa Cruz. EZH2 phospho S21 (00388) was purchased from Bethyl Laboratories. EZH2 (AC22), P110α PI3K, p-AKT (T308), p-AKT (S473), pSTAT1Y701, total STAT1, Histone H3 (3H1), Beclin-1 and cleaved PARP were purchased from Cell Signaling. Myc and Actin were purchased from Roche Applied Science and Sigma-Aldrich, respectively.
On the technique in general: In western blotting, separated proteins are transferred to a membrane and probed.

Series [3] deals with JAK2 phosphorylation (Tyr1007/1008). Description: pJAK2 and total JAK2 ELISA assay in DU145 cells. To be noted: in response to IFN-γ (25 ng/mL) stimulation. As to the method: pJAK2 levels were assessed using an ELISA assay kit (Tyr1007/1008, Life Technologies) and total JAK2 level with JAK2 (total) ELISA assay kit. Cells were first lysed with RIPA buffer and processed in the same way as western blot samples. pJAK2 and total JAK2 levels were determined by performing the ELISA assay on the processed cell lysates according to the manufacturer's protocol. The results were expressed as fold change after normalizing the pJAK2 (Tyr1007/1008) level to the total JAK2 level.

In another series the test system is LNCaP cells. The series is described as follows: Cell proliferation assay (CellTiter-Glo) in LNCaP cells. To be noted: siRNA knockdown combined with IFN-γ treatment. As for the experimental part: The optimal cell seeding was determined empirically for all cell lines by examining the growth of a wide range of seeding densities in a 96-well format to identify conditions that permitted proliferation for 6 days. Cells were then plated at the optimal seeding density 24 h before siRNA or drug treatment in triplicate. Plates were incubated for 6 days at 37° C. in 5% CO2. Cells were then lysed with CellTiter-Glo (CTG) (Promega) and chemiluminescent signal was detected with a microplate reader (TECAN). In addition, an untreated plate of cells was harvested at the time of drug or siRNA addition (T0) to quantify the starting number of cells. CTG values obtained after the 6 day treatment were expressed as percentages of the T0 value and plotted against time of treatment. Cells received 1-5 μM of DZNep, 25 ng/mL of IFN-γ and 0.1-2.5 μM of GSK343 unless stated otherwise for 72-96 h.
Background: Cellular ATP, detected with luciferase, serves as a proxy for viable cell number.

Series [4] deals with DU145-derived prostatospheres. The series is described as follows: Prostatosphere formation assay, DU145. The note with it: EZH2 knockdown in combination with IFN-γ, 7 days. As to the method:
Prostatospheres were generated according to protocols known to the skilled person in the art. In order to obtain prostatospheres from either DU145 or LNCaP, exponentially growing cultures were dissociated to single cells by standard trypsinization, washed three times with PBS and plated at a density of 1×10^4 cells/well in 6-well ultra-low attachment plates (Corning) containing 3 ml of SCM medium (DMEM:F12 plus 10 ng/mL bFGF, 20 ng/mL EGF, […], and 0.4% BSA) supplemented with 1% KO serum replacement (Invitrogen/Gibco). The cells were treated with DZNep or IFN-γ as indicated the next day and cultured for 7 days. 7 days old prostatospheres formed were stained with 4 μg/ml p-Iodonitrotetrazolium Violet (INT) overnight and were counted and analyzed using a GelCount™ automatic plate scanner (Oxford Optronics) and GelCount Version 0.025.1 software (Oxford Optronics). Plates were scanned at 1200 dpi and the colony detection algorithm was optimized for each cell type and culture time.

For the compound `Cl.Nc1nccc2c1ncn2[C@@H]1C=C(CO)[C@@H](O)[C@H]1O` [DZNep, (−)-1-[(1R,4R,5S)-3-(Hydroxymethyl)-4,5-dihydroxy-2-cyclopenten-1-yl]4-aminoimidazo[4,5-c]pyridine hydrochloride], in series [1], the “expression of IFN genes in prostatospheres” value is recorded as “enhanced response to IFN-γ stimulation”. In addition, the IFNGR1 expression result in series [2] is given as “restored the IFNGR1 expression”. Further, the “STAT1 activation and PARP cleavage” value in series [2] (DZNep co-treated with IFN-γ) is “increased STAT1 activation and PARP cleavage”.

Take “EZH2 knockdown: EZH2 siRNA: 5′-GACUCUGAAUGCAGUUGCU-3′ (SEQ ID NO: 1) (other strand not given here)”: the “JAK2 phosphorylation after knockdown” value in series [3] is “enhanced”. In addition, the “cell growth after knockdown” value with LNCaP cells is “no such an effect was seen”. In addition, the “tumorsphere formation after knockdown” value in series [4] is “efficiently inhibited the tumorsphere formation”.
